Results taken from patent US20250332139A1, “PS[…] AND THEIR USE FOR TREATING […] AND NE[…] DISORDERS” (Transcend Therapeutics, Inc., priority 2021, published 2025).
Like-named read-outs stand apart in the source and are kept apart here.

How the values were obtained:
[1] = cited from earlier work
168 GPCRs [2] = molecular target: T1, 168 GPCRs (Homo sapiens, UniProt P25116); assay: β-arrestin GPCR screen (PathHunter/GPCRmax), agonist mode; type: cell-based; details: F2R; Agonist; 1 uM
T1 construct: host or cells: PathHunter cell lines
Protocol: (§1) For agonist determination, cells were incubated with sample to induce response. […] Vehicle concentration was 1%.

168 GPCRs [3] = molecular target: T2, 168 GPCRs (Homo sapiens, UniProt P49682); assay: as above; type: cell-based; details: GPCR CXCR3; Agonist mode; 10 uM
T2 construct: host or cells: PathHunter cell lines
Protocol: as §1

168 GPCRs [4] = molecular target: T3, 168 GPCRs (Homo sapiens, UniProt P28222); assay: as above; type: cell-based
T3 construct: host or cells: PathHunter cell lines
Protocol: as §1

168 GPCRs [5] = molecular target: T4, 168 GPCRs (Homo sapiens, UniProt P48145); assay: as above; type: cell-based; details: GPCR NPBWR1; Agonist mode; 10 uM
T4 construct: host or cells: PathHunter cell lines
Protocol: as §1

168 GPCRs [6] = molecular target: T5, 168 GPCRs (Homo sapiens, UniProt O43603); assay: as above; type: cell-based; details: GALR2; Agonist; 1 uM
T5 construct: host or cells: PathHunter cell lines
Protocol: as §1

168 GPCRs [7] = molecular target: T6, 168 GPCRs (Homo sapiens, UniProt P48546); assay: as above; type: cell-based
T6 construct: host or cells: PathHunter cell lines
Protocol: as §1

168 GPCRs [8] = molecular target: T7, 168 GPCRs (Homo sapiens, UniProt P51677); assay: as above; type: cell-based; details: CCR3; Agonist; 1 uM
T7 construct: host or cells: PathHunter cell lines
Protocol: as §1

168 GPCRs [9] = molecular target: T8, 168 GPCRs (Homo sapiens, UniProt P51582); assay: as above; type: cell-based
T8 construct: host or cells: PathHunter cell lines
Protocol: as §1

168 GPCRs [10] = molecular target: T9, 168 GPCRs (Homo sapiens, UniProt P25021); assay: as above; type: cell-based; details: GPCR HRH2; Agonist mode; 10 uM
T9 construct: host or cells: PathHunter cell lines
Protocol: as §1

168 GPCRs [11] = molecular target: T10, 168 GPCRs (Homo sapiens, UniProt P51679); assay: as above; type: cell-based; details: CCR4; Agonist; 10 uM
T10 construct: host or cells: PathHunter cell lines
Protocol: as §1

168 GPCRs [12] = molecular target: T11, 168 GPCRs (Homo sapiens, UniProt Q16602); assay: as above; type: cell-based; details: CALCRL-RAMP3; Agonist; 10 uM
T11 construct: host or cells: PathHunter cell lines
Protocol: as §1

168 GPCRs [13] = molecular target: T12, 168 GPCRs (Homo sapiens, UniProt P30411); assay: as above; type: cell-based; details: BDKRB2; Agonist; 10 uM
T12 construct: host or cells: PathHunter cell lines
Protocol: as §1

168 GPCRs [14] = molecular target: T13, 168 GPCRs (Homo sapiens, UniProt O95136); assay: as above; type: cell-based; details: GPCR EDG5; Agonist mode; 10 uM
T13 construct: host or cells: PathHunter cell lines
Protocol: as §1

168 GPCRs [15] = molecular target: T14, 168 GPCRs (Homo sapiens, UniProt P32247); assay: as above; type: cell-based; details: BRS3; Agonist; 1 uM
T14 construct: host or cells: PathHunter cell lines
Protocol: as §1

168 GPCRs [16] = molecular target: T15, 168 GPCRs (Homo sapiens, UniProt Q96LB1); assay: as above; type: cell-based; details: GPCR MRGPRX2; Agonist mode; 10 uM
T15 construct: host or cells: PathHunter cell lines
Protocol: as §1

168 GPCRs [17] = molecular target: T16, 168 GPCRs (Homo sapiens, UniProt P23945); assay: as above; type: cell-based; details: GPCR FSHR; Agonist mode; 10 uM
T16 construct: host or cells: PathHunter cell lines
Protocol: as §1

168 GPCRs [18] = molecular target: T17, 168 GPCRs (Homo sapiens, UniProt P21917); assay: as above; type: cell-based; details: GPCR DRD4; Agonist mode; 10 uM
T17 construct: host or cells: PathHunter cell lines
Protocol: as §1

168 GPCRs [19] = molecular target: T18, 168 GPCRs (Homo sapiens, UniProt P32246); assay: as above; type: cell-based; details: CCR1; Agonist; 1 uM
T18 construct: host or cells: PathHunter cell lines
Protocol: as §1

168 GPCRs [20] = molecular target: T19, 168 GPCRs (Homo sapiens, UniProt P14416); assay: as above; type: cell-based; details: GPCR DRD2L; Agonist mode; 10 uM
T19 construct: host or cells: PathHunter cell lines
Protocol: as §1

C57BL/6J mice = assay: Head-twitch response (HTR) test; type: in vivo, mouse; details: i.p., HTR measured for 10 minutes, any dose tested
Protocol: Head twitch response (HTR) was evaluated using C57BL/6J mice (ages 7-10 weeks). Mice were ear tagged at least three days after arrival to the animal facility and allowed to rest for at least three days before behavioral testing. Small magnets (SuperMagnetMan-N45 magnet 3 mm diameter, 0.5 mm thickness) were glued to ear tags (Stoelting-La Pias Aluminum Ear Tags) at least two days before mice were ear tagged. The experimental setup was adapted from Gonzales-Maeso (de la Fuente Revenga et al., 2019) and Kwan (Jefferson et al., 2022; Savalia et al., 2021), including experimental apparatus and MATLAB code for analysis.
Doses were randomly assigned, and age-matched controls were injected with vehicle and randomly interspersed with drug conditions. At least three animals per sex were used for each drug dose and condition. If animals were used in multiple HTR experiments, experimental sessions took place at least one week apart. Two animals were run at a time. Immediately after i.p. injection of psychedelic or entactogen drug, animals were placed in separate plastic boxes within a larger chamber (Home Depot-28 in. W×32 in. H x 21.5 in. D), and HTR was measured for 10 minutes. A small lamp was placed in the back of the larger chamber, and a high-speed camera (Basler-Aca 1920-155 μm) was suspended from the ceiling to record video of the animals in the plastic boxes. […]

168 GPCRs [21] = molecular target: 168 GPCRs (Homo sapiens, UniProt Q8NFJ6); assay: β-arrestin GPCR screen (PathHunter/GPCRmax), agonist mode; type: cell-based; design: host or cells: PathHunter cell lines; details: PROKR2; Agonist; 1 uM
Protocol: as §1

T3 sequence (P28222 whole entry): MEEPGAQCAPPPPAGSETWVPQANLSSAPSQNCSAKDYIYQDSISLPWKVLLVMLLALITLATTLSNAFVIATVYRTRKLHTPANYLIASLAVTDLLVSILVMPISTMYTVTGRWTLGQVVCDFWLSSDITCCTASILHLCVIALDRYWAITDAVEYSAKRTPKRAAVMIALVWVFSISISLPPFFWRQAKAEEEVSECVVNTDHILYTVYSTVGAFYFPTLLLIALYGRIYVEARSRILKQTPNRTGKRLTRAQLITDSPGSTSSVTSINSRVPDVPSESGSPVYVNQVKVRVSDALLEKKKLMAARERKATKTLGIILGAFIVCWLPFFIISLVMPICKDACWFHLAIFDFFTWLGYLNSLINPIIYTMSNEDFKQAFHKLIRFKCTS
T6 sequence (P48546 22-466): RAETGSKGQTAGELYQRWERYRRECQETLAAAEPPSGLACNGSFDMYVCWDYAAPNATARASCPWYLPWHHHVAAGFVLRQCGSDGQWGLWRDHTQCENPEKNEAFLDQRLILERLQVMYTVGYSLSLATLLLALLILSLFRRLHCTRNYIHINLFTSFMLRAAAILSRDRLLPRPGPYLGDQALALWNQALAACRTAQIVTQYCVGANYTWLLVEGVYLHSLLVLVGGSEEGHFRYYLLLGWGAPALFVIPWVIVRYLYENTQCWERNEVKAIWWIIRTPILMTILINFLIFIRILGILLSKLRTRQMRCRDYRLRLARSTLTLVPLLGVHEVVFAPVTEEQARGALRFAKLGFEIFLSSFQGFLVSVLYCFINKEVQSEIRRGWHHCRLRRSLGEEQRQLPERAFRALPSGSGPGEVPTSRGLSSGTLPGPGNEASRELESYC
T8 sequence (P51582 whole entry): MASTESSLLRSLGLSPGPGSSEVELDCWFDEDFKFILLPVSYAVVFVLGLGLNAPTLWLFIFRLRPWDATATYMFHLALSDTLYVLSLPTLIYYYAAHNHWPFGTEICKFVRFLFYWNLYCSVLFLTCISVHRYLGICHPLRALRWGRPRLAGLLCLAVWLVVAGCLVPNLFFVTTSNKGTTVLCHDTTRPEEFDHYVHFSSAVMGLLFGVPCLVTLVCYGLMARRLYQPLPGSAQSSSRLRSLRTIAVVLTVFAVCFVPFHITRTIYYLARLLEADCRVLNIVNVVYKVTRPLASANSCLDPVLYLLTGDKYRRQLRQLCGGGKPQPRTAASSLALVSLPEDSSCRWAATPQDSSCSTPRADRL
T7 sequence (P51677 whole entry): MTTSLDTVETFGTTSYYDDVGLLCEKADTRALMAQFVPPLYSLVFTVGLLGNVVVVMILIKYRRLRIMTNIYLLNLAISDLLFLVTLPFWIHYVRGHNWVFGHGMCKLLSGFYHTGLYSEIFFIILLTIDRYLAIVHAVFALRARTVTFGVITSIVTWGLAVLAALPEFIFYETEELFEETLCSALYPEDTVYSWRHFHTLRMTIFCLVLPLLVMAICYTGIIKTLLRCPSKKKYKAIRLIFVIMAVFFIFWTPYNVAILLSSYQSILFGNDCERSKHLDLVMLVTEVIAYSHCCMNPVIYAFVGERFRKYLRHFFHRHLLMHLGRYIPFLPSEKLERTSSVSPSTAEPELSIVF
T14 sequence (P32247 whole entry): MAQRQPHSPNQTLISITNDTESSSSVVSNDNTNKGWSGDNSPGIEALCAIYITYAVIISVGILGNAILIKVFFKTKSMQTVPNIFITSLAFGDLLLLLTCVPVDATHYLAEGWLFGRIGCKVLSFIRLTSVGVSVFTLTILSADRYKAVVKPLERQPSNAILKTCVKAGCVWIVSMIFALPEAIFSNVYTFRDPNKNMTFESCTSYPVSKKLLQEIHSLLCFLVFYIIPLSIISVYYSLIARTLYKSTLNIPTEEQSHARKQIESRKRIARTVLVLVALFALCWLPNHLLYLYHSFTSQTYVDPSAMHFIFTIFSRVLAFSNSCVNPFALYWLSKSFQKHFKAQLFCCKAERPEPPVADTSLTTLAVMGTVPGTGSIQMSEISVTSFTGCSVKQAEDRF
T9 sequence (P25021 whole entry): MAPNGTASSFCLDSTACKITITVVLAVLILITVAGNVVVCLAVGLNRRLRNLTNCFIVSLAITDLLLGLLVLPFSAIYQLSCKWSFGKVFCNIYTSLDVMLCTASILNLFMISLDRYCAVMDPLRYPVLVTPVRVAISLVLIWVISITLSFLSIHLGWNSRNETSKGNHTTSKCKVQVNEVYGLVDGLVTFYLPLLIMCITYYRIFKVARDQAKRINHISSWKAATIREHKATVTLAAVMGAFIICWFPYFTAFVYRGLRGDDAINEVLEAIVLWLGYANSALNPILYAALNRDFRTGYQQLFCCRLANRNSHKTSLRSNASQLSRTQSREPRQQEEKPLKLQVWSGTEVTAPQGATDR
T4 sequence (P48145 whole entry): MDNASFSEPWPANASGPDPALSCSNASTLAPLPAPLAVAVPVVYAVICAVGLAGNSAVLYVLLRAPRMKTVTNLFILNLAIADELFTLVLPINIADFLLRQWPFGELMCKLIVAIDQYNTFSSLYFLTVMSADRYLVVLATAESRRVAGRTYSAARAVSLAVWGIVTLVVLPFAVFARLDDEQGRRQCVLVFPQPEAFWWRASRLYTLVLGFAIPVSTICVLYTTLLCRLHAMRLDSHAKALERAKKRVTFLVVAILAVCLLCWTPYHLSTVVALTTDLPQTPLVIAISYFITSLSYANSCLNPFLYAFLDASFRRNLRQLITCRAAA
T1 sequence (P25116 22-425): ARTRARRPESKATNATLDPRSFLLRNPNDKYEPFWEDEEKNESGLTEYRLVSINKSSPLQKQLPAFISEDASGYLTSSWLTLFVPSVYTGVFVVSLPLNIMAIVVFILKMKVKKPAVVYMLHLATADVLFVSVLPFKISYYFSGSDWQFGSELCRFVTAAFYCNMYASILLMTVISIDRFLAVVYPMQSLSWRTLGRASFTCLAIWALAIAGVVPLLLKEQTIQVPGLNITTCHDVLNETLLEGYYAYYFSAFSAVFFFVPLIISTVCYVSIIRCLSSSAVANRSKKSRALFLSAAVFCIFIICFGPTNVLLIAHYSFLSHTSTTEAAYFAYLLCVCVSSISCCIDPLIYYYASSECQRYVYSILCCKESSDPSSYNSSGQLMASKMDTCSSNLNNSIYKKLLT
T15 sequence (Q96LB1 whole entry): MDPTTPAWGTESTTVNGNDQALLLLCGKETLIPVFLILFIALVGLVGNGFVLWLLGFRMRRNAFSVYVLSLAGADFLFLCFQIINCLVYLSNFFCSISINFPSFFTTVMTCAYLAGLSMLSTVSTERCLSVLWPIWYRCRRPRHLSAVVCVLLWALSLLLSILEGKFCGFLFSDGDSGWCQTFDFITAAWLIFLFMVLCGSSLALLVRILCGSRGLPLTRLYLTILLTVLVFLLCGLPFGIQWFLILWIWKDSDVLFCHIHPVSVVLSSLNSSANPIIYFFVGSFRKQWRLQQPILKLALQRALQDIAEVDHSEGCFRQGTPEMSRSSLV
T11 sequence (Q16602 23-461): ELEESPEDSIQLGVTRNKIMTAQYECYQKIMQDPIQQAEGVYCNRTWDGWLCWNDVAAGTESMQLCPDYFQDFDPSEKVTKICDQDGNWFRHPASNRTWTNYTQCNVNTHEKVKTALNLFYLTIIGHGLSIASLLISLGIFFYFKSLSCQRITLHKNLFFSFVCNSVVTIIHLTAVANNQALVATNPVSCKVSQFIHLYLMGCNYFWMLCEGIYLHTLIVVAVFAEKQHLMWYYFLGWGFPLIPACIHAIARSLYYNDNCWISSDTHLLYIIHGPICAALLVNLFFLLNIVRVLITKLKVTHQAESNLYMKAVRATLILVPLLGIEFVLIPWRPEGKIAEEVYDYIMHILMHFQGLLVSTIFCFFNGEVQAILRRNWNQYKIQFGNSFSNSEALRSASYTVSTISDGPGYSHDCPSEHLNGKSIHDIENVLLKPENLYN
T17 sequence (P21917 whole entry): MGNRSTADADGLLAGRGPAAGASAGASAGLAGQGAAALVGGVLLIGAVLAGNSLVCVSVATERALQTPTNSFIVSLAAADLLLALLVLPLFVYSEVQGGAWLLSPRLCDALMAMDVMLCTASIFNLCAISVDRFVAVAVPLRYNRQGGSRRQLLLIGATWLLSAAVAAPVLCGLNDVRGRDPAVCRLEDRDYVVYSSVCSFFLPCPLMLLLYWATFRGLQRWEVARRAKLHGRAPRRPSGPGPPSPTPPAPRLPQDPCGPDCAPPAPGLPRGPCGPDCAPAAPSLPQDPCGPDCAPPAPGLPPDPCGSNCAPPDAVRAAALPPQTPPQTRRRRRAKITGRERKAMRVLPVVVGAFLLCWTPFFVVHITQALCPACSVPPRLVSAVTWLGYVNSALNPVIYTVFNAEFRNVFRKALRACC
T2 sequence (P49682 whole entry): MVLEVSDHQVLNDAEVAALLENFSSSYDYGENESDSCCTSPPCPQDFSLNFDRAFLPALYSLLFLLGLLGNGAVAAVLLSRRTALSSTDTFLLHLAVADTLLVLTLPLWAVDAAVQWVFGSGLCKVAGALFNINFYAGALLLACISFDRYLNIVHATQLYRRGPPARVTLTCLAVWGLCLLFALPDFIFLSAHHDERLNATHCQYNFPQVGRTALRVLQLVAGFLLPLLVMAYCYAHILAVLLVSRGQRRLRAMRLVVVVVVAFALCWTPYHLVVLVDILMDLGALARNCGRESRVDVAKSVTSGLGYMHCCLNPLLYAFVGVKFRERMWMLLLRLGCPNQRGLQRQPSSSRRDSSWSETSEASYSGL

Compound: CNC(C)C(=O)c1ccc2c(c1)OCO2 (stereo not shown) [methylone, 3,4-methylenedioxy-N-methylcathinone]
- AUC24 hr, Mean ([1]; 50 mg oral, N = 3): (989, 4.5%) hr*μg/L
- AUCinf, Mean ([1]; 50 mg oral, N = 3): (1063, 6.9%) hr*μg/L
- Cmax, Mean ([1]; 50 mg oral, N = 3): (153.0, 18.9%) μg/L
- Half-life, Mean ([1]; 50 mg oral, N = 3): (6.3, 15%) hr
- AUC10 hr, Mean ([1]; 100 mg oral, N = 6): (1586, 23.1%) hr*μg/L
- AUC24 hr, Mean ([1]; 100 mg oral, N = 6): (2268, 20.4%) hr*μg/L
- AUCinf, Mean ([1]; 100 mg oral, N = 6): (2444, 18.3%) hr*μg/L
- Cmax, Mean ([1]; 100 mg oral, N = 6): (303.6, 45%) μg/L
- Half-life, Mean ([1]; 100 mg oral, N = 6): (6.1, 23.3%) hr
- Tmax, Min-Max ([1]; 100 mg oral, N = 6): (0.75-3) hr
- AUC10 hr, Mean ([1]; 150 mg oral, N = 5): (2236, 29.0%) hr*μg/L
- AUC24 hr, Mean ([1]; 150 mg oral, N = 5): (3349, 36.5%) hr*μg/L
- AUCinf, Mean ([1]; 150 mg oral, N = 5): (3777, 42.2%) hr*μg/L
- Cmax, Mean ([1]; 150 mg oral, N = 5): (354.6, 30.7%) μg/L
- Half-life, Mean ([1]; 150 mg oral, N = 5): (6.8, 23.3%) hr
- Tmax, Min-Max ([1]; 150 mg oral, N = 5): (1.5-4) hr
- AUC10 hr, Mean ([1]; 200 mg oral, N = 7): (3310, 17.9%) hr*μg/L
- AUC24 hr, Mean ([1]; 200 mg oral, N = 7): (4796, 23.2%) hr*μg/L
- AUCinf, Mean ([1]; 200 mg oral, N = 7): (5267, 25.1%) hr*μg/L
- Cmax, Mean ([1]; 200 mg oral, N = 7): (603.6, 20.6%) μg/L
- Half-life, Mean ([1]; 200 mg oral, N = 7): (6.6, 15.1%) hr
- Tmax, Min-Max ([1]; 200 mg oral, N = 7): (1-4) hr
- activity at 1 µM (168 GPCRs [2]): -2.5%
- activity at 10 µM (168 GPCRs [3]): ~1%
- activity at 10 µM (168 GPCRs [4]; GPCR HTR1B, Agonist mode, 10 uM): 8.7%
- activity at 1 µM (168 GPCRs [4]; HTR1B, Agonist, 1 uM): ~3%
- activity at 10 µM (168 GPCRs [5]): ~-1%
- activity at 1 µM (168 GPCRs [6]): -3.4%
- activity at 1 µM (168 GPCRs [7]; GIPR, Agonist, 1 uM): ~-2%
- activity at 10 µM (168 GPCRs [7]; GPCR GIPR, Agonist mode, 10 uM): ~-5%
- activity at 1 µM (168 GPCRs [8]): -0.7%
- activity at 10 µM (168 GPCRs [9]; GPCR P2RY4, Agonist mode, 10 uM): -4.1%
- activity at 1 µM (168 GPCRs [9]; P2RY4, Agonist, 1 uM): ~-3%
- activity at 10 µM (168 GPCRs [10]): -2.8%
- activity at 10 µM (168 GPCRs [11]): -1.4%
- activity at 10 µM (168 GPCRs [12]): -2.2%
- activity at 10 µM (168 GPCRs [13]): -2.9%
- activity at 10 µM (168 GPCRs [14]): -3.7%
- activity at 1 µM (168 GPCRs [15]): -4.5%
- activity at 10 µM (168 GPCRs [16]): 0.7%
- activity at 10 µM (168 GPCRs [17]): -2.2%
- activity at 10 µM (168 GPCRs [18]): -9.4%
- activity at 1 µM (168 GPCRs [19]): ~-2%
- activity at 10 µM (168 GPCRs [20]): -0.7%
- head-twitch behaviors (C57BL/6J mice): no effect on head-twitch behaviors at any dose tested
- activity at 1 µM (168 GPCRs [21]): ~0%
